From PubChem BioAssay AID1259407 (Chemical Carcinogenesis Research Information System (CCRIS), 2018) come the findings set out here.

The source made the active and inactive calls. How the calls were made is not given here.

This data set concerns CCRIS mutagenicity, Ames/micronucleus/aberration tests. Briefly: CCRIS mutagenicity studies.

`BrCCCCBr`: the mutagenic call was “active; positive (structural changes); authors report equivocal results for ploidy chang” (End Point: IN VITRO CHROMOSOMAL ABERRATIONS, Test System: CHL CELLS, Metabolic Activation: RAT, LIVER, S-9, SODIUM PHENOBARBITAL AND 5,6-BENZOFLAVONE); “inactive; negative” (Test System: AMES SALMONELLA TYPHIMURIUM, Strain/Indicator: TA98, Metabolic Activation: NONE, Method: PREINCUBATION); “inactive; negative” (Test System: AMES SALMONELLA TYPHIMURIUM, Strain/Indicator: TA98, Metabolic Activation: RAT LIVER S-9, PHENOBARBITAL AND BETA-NAPHTHOFLAVONE, Method: PREINCUBATION); “inactive; negative” (Test System: AMES SALMONELLA TYPHIMURIUM, Strain/Indicator: TA100, Metabolic Activation: NONE, Method: PREINCUBATION); “active; positive” (Test System: AMES SALMONELLA TYPHIMURIUM, Strain/Indicator: TA1535, Metabolic Activation: NONE, Method: PREINCUBATION); “active; positive” (Test System: AMES SALMONELLA TYPHIMURIUM, Strain/Indicator: TA1535, Metabolic Activation: RAT LIVER S-9, PHENOBARBITAL AND BETA-NAPHTHOFLAVONE, Method: PREINCUBATION). The mutagenic call is, setting by setting: (Test System: AMES SALMONELLA TYPHIMURIUM, Strain/Indicator: TA1537, Metabolic Activation: NONE, Method: PREINCUBATION) “inactive; negative”; (Test System: AMES SALMONELLA TYPHIMURIUM, Strain/Indicator: TA1537, Metabolic Activation: RAT LIVER S-9, PHENOBARBITAL AND BETA-NAPHTHOFLAVONE, Method: PREINCUBATION) “inactive; negative”; (Test System: E.COLI, Strain/Indicator: WP2UVRA, Metabolic Activation: NONE, Method: PREINCUBATION) “active; positive”; (Test System: E.COLI, Strain/Indicator: WP2UVRA, Metabolic Activation: RAT LIVER S-9, PHENOBARBITAL AND BETA-NAPHTHOFLAVONE, Method: PREINCUBATION) “active; positive”.
